Laboratory results: US7868013B2, “Cycloalkyl substituted pyrimidinediamine compounds and their uses” (Rigel Pharmaceuticals, Inc., priority 2004, dated 2011)
Counter-ions that a name gives are not always drawn. Like-named read-outs stand apart in the source and are kept apart here.

How the values were obtained:
U2OS (bone osteosarcoma) = assay: In vitro antiproliferation assay, U2OS cells; assay type: cell-based; details: U20S
Description: (§1) Certain compounds were tested against other cell types for their ability to inhibit proliferation in standard antiproliferation assays.

A549 (lung carcinoma) = assay: In vitro antiproliferation assay, A549 cells (TABLE 1 6 point assay; TABLE 2); assay type: cell-based
Description: as §1

[1] = system: L1210 (mouse lymphocytic leukemia); assay: In vitro antiproliferation assay, L1210 cells; assay type: cell-based
Description: as §1

[2] = system: MOLT4 (T lymphoblast acute lymphoblastic leukemia); assay: In vitro antiproliferation assay, MOLT4 cells; assay type: cell-based
Description: as §1

[3] = system: K562 (bone marrow chronic myelogenous leukemia); assay: In vitro antiproliferation assay, K562 cells; assay type: cell-based
Description: as §1

[4] = system: U937 (histiocytic lymphoma); assay: In vitro antiproliferation assay, U937 cells; assay type: cell-based; details: Homo sapiens, U-937
Description: as §1

[5] = system: THP-1 (monocyte acute monocytic leukemia); assay: In vitro antiproliferation assay, THP-1 cells; assay type: cell-based
Description: as §1

[6] = system: MOLT3 (T lymphoblast acute lymphoblastic leukemia); assay: In vitro antiproliferation assay, MOLT3 cells; assay type: cell-based
Description: as §1

[7] = system: MiaPaCa-2 (pancreatic carcinoma); assay: In vitro antiproliferation assay, MiaPaCa-2 cells; assay type: cell-based; details: Miapaca2, read-out: In Vitro IC50
Description: (§2) Cis racemic Compound 15, (1S,2R) enantiomeric Compound 15a and […] enantiomeric Compound 15b were also tested against DU145 (prostate carcinoma), HCT116 (colorectal carcinoma) and MiaPaCa-2 (pancreatic carcinoma) cell lines.
as §1

[8] = system: COLO 205 (colorectal adenocarcinoma); assay: In vitro antiproliferation assay, COLO 205 cells; assay type: cell-based; details: Colo205
Description: as §1

[9] = system: TOV-21G (ovarian clear cell carcinoma); assay: In vitro antiproliferation assay, TOV-21G cells; assay type: cell-based; details: Homo sapiens, TOV21G; TOV-G21
Description: as §1

[10] = system: HELA (cervical adenocarcinoma); assay: In vitro antiproliferation assay, HELA cells; assay type: cell-based
Description: as §1

[11] = system: H1299 (non-small cell lung carcinoma); assay: In vitro antiproliferation assay, H1299 cells (TABLE 1 6 point assay; TABLE 2); assay type: cell-based; details: Homo sapiens
Description: as §1

[12] = system: DU145 (prostate carcinoma); assay: In vitro antiproliferation assay, DU145 cells; assay type: cell-based; details: DU145, read-out: In Vitro IC50
Description: as §2, §1

H7299 = assay: In vitro antiproliferation assay, H7299 cells; assay type: cell-based
Description: as §1

[13] = system: HL160 (promyeloblast promyelocytic leukemia); assay: In vitro antiproliferation assay, HL160 cells; assay type: cell-based
Description: as §1

[14] = system: CaOV-3 (ovarian adenocarcinoma); assay: In vitro antiproliferation assay, CaOV-3 cells; assay type: cell-based; details: Homo sapiens
Description: as §1

[15] = system: SK-OV-3 (ovarian adenocarcinoma); assay: In vitro antiproliferation assay, SK-OV-3 cells; assay type: cell-based; details: Homo sapiens, SKOV3
Description: as §1

[16] = system: BXPC-3 (pabcreatic adenocarcinoma); assay: In vitro antiproliferation assay, BXPC-3 cells; assay type: cell-based; details: Homo sapiens
Description: as §1

[17] = system: PC3 (prostate adenocarcinoma); assay: In vitro antiproliferation assay, PC3 cells; assay type: cell-based
Description: as §1

[18] = system: SW620 (colorectal adenocarcinoma); assay: In vitro antiproliferation assay, SW620 cells; assay type: cell-based
Description: as §1

[19] = system: ASPC-1 (pancreatic adenocarcinoma); assay: In vitro antiproliferation assay, ASPC-1 cells; assay type: cell-based; details: ASPC1
Description: as §1

[20] = system: SU86.86 (pancreatic carcinoma); assay: In vitro antiproliferation assay, SU86.86 cells; assay type: cell-based; details: Homo sapiens, SU.86.86
Description: as §1

Aurora kinase-B = target: T1, Aurora kinase-B (Homo sapiens, UniProt Q96GD4); assay: Functional cellular assay of Aurora kinase-B: phosphorylation of histone H3 in A549 cells; assay type: cell-based; details: A549 cells, phospho-histone H3; read-out: IC50 of Aurora kinase-B inhibition
T1 construct: endogenous in cells; host or cells: A549 cells
T1 sequence (Q96GD4 whole entry): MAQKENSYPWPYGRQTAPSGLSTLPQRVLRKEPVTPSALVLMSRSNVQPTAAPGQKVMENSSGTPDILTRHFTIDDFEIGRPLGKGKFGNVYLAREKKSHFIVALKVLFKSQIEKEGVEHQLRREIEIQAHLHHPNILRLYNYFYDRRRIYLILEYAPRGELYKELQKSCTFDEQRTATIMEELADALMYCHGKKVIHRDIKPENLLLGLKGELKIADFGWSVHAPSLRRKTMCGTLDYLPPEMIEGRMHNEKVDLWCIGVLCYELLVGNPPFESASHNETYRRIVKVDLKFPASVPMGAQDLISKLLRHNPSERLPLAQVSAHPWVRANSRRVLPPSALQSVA
Description: Enantiomers E1 and E2 (Compounds 60a and 60b, respectively) were tested for their ability to inhibit Aurora kinase-B in a functional cellular assay involving phosphorylation of its substrate, histone H3. For the assay, A549 cells were seeded into the wells of a microtiter tray (5000 cells/well in 100 μl F12K media) late in the afternoon on Day 1. The cells were grown overnight (37° C., 5% CO2) On Day 2, 50 μl nocodazole (1 μM in media) was added to each well, giving a final concentration of 333 nM. Cells were grown for an additional 18 hrs under the same conditions.
On Day 3, 50 μl aliguots of varying concentrations of test compound were added to the wells Test compounds were prepared by 2-fold serial dilution of a […] stock (in DMSO). The diluted compounds in DMSO were then further diluted 1:50 with media to yield a final solution containing 4× test compound, 98% media, 2% DMSO. After incubation, the media/test compound was washed and the cells fixed with 2% paraformaldehyde (in Dulbecco's phosphate buffered saline “DPBS”; 25 μl per well; […] incubation). […] The cells were then stained with a secondary antibody labeled with a fluorescent dye (secondary antibody donkey anti-mouse AlexFluor 488 (Invitrogen Molecular Probes; 1:2000) and DAPI (1:15,000 of 1 mg/ml stock) for 1 hr at room temperature, washed three times with DPBS (200 μl/well) and stored under DPBS (100 μl/well) at 4° C. until ready for analysis.
A Zeiss Axiovert S100 inverted fluorescent microscope with a Plan-NEOFLUAR 10× objective, a Hamamatsu Lightningcure 200 Mercury-Xenon light source and an Omega Optical XF57 quad filter was used for all data collection. […] Images were captured and analyzed in 12-bit format using segmentation and morphological routines contained in the Image Pro software package. Identified nuclei were counted and pixel data for each cell along with experimental conditions was stored in a database using MySQL 4.0.14. […]
For phospho-histone H3 analysis the data is converted to Facs files and analysed using FlowJo. […]

[21] = system: H1155 (non-small cell lung carcinoma); assay: In vitro antiproliferation assay, H1155 cells; assay type: cell-based
Description: as §1

[22] = system: H460 (large cell lung carcinoma); assay: In vitro antiproliferation assay, H460 cells; assay type: cell-based; details: Homo sapiens, NCI-H460
Description: as §1

A549 tumors = assay: Xenograft treatment model, A549 tumors; assay type: in vivo, SCID mice; details: 5 days on/2 days off, 10 mg/kg qd, p>0.05
Description: (§3) When palpable tumors appeared and were of a preselected volume (approx. 100 mm3 for treatment model; >300 mm3 for regression model), the mice were administered test compounds in the amounts and according to the dosing regimens specified in TABLE 3 (treatment protocol) and TABLE 4 (regression protocol), below.

MiaPaCa tumors = assay: Xenograft regression model, MiaPaCa tumors; assay type: in vivo, SCID mice; details: 10 mg/kg/day oral or i.p., similar to taxol
Description: as §3

Colo205 tumors [23] = assay: Xenograft regression model, Colo205 tumors; assay type: in vivo, SCID mice; details: 10 mg/kg/day oral
Description: as §3

Colo205 tumors [24] = assay: Xenograft treatment model, Colo205 tumors; assay type: in vivo, SCID mice; details: daily and pulsed dosing regimens, all dosage levels tested
Description: as §3

[25] = Homo sapiens, A549, 6 point assay, A549 cells, read-out: IC50, A549 cells
[26] = Homo sapiens, A549, A549, read-out: In Vitro IC50
[27] = NCI-H1299, 6 point assay, H1299 cells, read-out: IC50, H1299 cells
[28] = NCI-H1299, H1299, read-out: In Vitro IC50

For Cc1cc(Nc2ncc(F)c(N[C@H]3[C@@H](C(N)=O)[C@@H]4C=C[C@H]3C4)n2)ccc1N1CCN(C)CC1 (single isomer, unassigned) [Compound 60a], the IC50 (U2OS (bone osteosarcoma); Homo sapiens, U2OS) was at most 10 nM, the IC50 (A549 (lung carcinoma); [25]) was at most 100 nM and the IC50 (A549 (lung carcinoma); [26]) was at most 10 nM. The IC50 ([1]; Mus musculus) was at most 20 nM, the IC50 ([2]; Homo sapiens, MOLT-4) was at most 10 nM and the IC50 ([3]; Homo sapiens) was at most 1000 nM. The IC50 [4] was at most 10 nM, the IC50 ([5]; Homo sapiens) was at most 1000 nM and the IC50 ([6]; Homo sapiens, MOLT-3) was at most 10 nM. It also gave an IC50 ([7]; Homo sapiens, MIA PaCa-2) of at most 10 nM, an IC50 ([8]; Homo sapiens, COLO 205) of at most 10 nM and an IC50 [9] of at most 10 nM. The IC50 ([10]; Homo sapiens, HeLa) was at most 10 nM, the IC50 [11, 27] was at most 100 nM and the IC50 [11, 28] was at most 10 nM. The IC50 ([12]; Homo sapiens, DU-145) was at most 20 nM, the IC50 (H7299) was at most 20 nM and the IC50 [13] was at most 10 nM. It also gave an IC50 [14] of at most 10 nM, an IC50 [15] of at most 20 nM and an IC50 [16] of at most 10 nM. For the same molecule, the IC50 ([17]; Homo sapiens, PC-3) was at most 10 nM, the IC50 ([18]; Homo sapiens, SW-620) was at most 20 nM and the IC50 ([19]; Homo sapiens) was at most 10 nM. The IC50 [20] was at most 20 nM, the IC50 (Aurora kinase-B) was about 7 nM and the IC50 ([21]; Homo sapiens, NCI-H1155) was at most 10 nM.

Cc1cc(Nc2ncc(F)c(N[C@H]3[C@@H](C(N)=O)[C@@H]4C=C[C@H]3C4)n2)ccc1N1CCN(C)CC1 [compound 234, (1R,2R,3S,4S)—N4-(3-Aminocarbonylbicyclo[2.2.1]hept-5-en-2-yl)-5-fluoro-N2-[3-methyl-4-(4-methylpiperazin-1-yl)phenyl]-2,4-pyrimidinediamine Hydrogen Chloride Salt] was tested, and the IC50 [22] was at most 10 nM, the IC50 (A549 (lung carcinoma); [25]) was at most 100 nM and the IC50 (A549 (lung carcinoma); [26]) was at most 10 nM. For the same molecule, the “Reduction in mean tumor volume” value (A549 tumors) was about 40%, the IC50 ([7]; Homo sapiens, MIA PaCa-2) was at most 10 nM and the IC50 ([8]; Homo sapiens, COLO 205) was at most 10 nM. For the same molecule, the “Reduction in tumor growth rate” value (MiaPaCa tumors) was “Significant reductions in tumor growth rate”, the IC50 ([10]; Homo sapiens, HeLa) was at most 10 nM and the IC50 [11, 27] was 100 to 1000 nM. The IC50 [11, 28] was at most 1000 nM, the IC50 ([12]; Homo sapiens, DU-145) was at most 1000 nM and the IC50 (H7299) was at most 1000 nM. The “Reduction in tumor growth rate” value (Colo205 tumors [23]) was “Significant reductions in tumor growth rate” and the “Reduction in tumor growth rate as compared to a vehicle control” value (Colo205 tumors [24]) was “significant (p<0.050) reductions in tumor growth rate”.

For Cc1cc(Nc2ncc(F)c(NC3C4C=CC(C4)C3C(N)=O)n2)ccc1N1CCN(C)CC1 (racemic) [Compound 60, 2-exo-3-exo racemic N4-(3-aminocarbonylbicyclo[2.2.1]hept-5-ene-2-yl)-5-fluoro-N2-[3-methyl-4-(4-methylpiperazin-1-yl)phenyl]-2,4-pyrimidinediamine], the IC50 (U2OS (bone osteosarcoma)) was at most 20 nM, the IC50 (A549 (lung carcinoma); A549, read-out: In Vitro IC50) was at most 20 nM and the IC50 [1] was at most 1000 nM. The IC50 [2] was at most 10 nM, the IC50 [3] was at most 1000 nM and the IC50 [5] was at most 1000 nM. It also gave an IC50 [6] of at most 10 nM, an IC50 [7] of at most 10 nM and an IC50 [8] of at most 10 nM. It also gave an IC50 ([10]; HELA) of at most 10 nM, an IC50 [12] of at most 20 nM and an IC50 (H7299) of at most 20 nM. It also gave an IC50 [13] of at most 10 nM, an IC50 [17] of at most 20 nM and an IC50 [18] of at most 1000 nM. It also gave an IC50 [19] of at most 20 nM and an IC50 ([21]; H1155) of at most 10 nM.
